Measurements published in the NIST ThermoML archive (doi:10.1021/je060017i).
Numbers after ± are expanded uncertainties.

Experiments:
[1] = xn = mol fraction of the nth substance listed; details: 101 kPa, Liquid
[2] = excess molar enthalpy (molar enthalpy of mixing); xn = mol fraction of the nth substance listed; details: 101 kPa, Liquid, Flow calorimetry

CC1CCCO1 (configuration not stated) [2-methyltetrahydrofuran] + CCCCO
Details	excess molar enthalpy [kcal/mol]	mass density [kg/m3]	speed of sound [m/s]	viscosity [mPa·s]
[1], 283.15 K, x1 = 0.0447	–	–	1292.4 ± 1.7	–
[1], 283.15 K, x1 = 0.0518	–	–	–	3.231 ± 0.074
[1], 283.15 K, x1 = 0.0539	–	820.03 ± 0.91	–	–
[1], 283.15 K, x1 = 0.1047	–	822.92 ± 0.9	–	–
[1], 283.15 K, x1 = 0.1048	–	–	–	2.67 ± 0.062
[1], 283.15 K, x1 = 0.1154	–	–	1292.6 ± 1.7	–
[1], 283.15 K, x1 = 0.2068	–	828.51 ± 0.89	–	–
[1], 283.15 K, x1 = 0.2123	–	–	–	1.958 ± 0.046
[1], 283.15 K, x1 = 0.2143	–	–	1291.5 ± 1.7	–
[1], 283.15 K, x1 = 0.2451	–	–	1291 ± 1.7	–
[1], 283.15 K, x1 = 0.3108	–	833.9 ± 0.88	–	–
[1], 283.15 K, x1 = 0.3159	–	–	–	1.507 ± 0.036
[1], 283.15 K, x1 = 0.4147	–	839.04 ± 0.86	–	–
[1], 283.15 K, x1 = 0.4197	–	–	–	1.218 ± 0.03
[1], 283.15 K, x1 = 0.4221	–	–	1286.8 ± 1.6	–
[1], 283.15 K, x1 = 0.4893	–	842.56 ± 0.85	–	–
[1], 283.15 K, x1 = 0.5195	–	–	–	1.013 ± 0.025
[1], 283.15 K, x1 = 0.5204	–	–	1284 ± 1.6	–
[1], 283.15 K, x1 = 0.6172	–	–	1281.2 ± 1.6	–
[1], 283.15 K, x1 = 0.6195	–	848.41 ± 0.84	–	–
[1], 283.15 K, x1 = 0.6211	–	–	–	0.865 ± 0.022
[1], 283.15 K, x1 = 0.7116	–	–	–	0.76 ± 0.02
[1], 283.15 K, x1 = 0.7128	–	–	1278.1 ± 1.6	–
[1], 283.15 K, x1 = 0.724	–	852.97 ± 0.83	–	–
[1], 283.15 K, x1 = 0.8078	–	–	1275.2 ± 1.6	–
[1], 283.15 K, x1 = 0.8103	–	–	–	0.675 ± 0.018
[1], 283.15 K, x1 = 0.8923	–	859.92 ± 0.81	–	–
[1], 283.15 K, x1 = 0.8952	–	–	1272.2 ± 1.6	–
[1], 283.15 K, x1 = 0.9246	–	–	–	0.607 ± 0.017
[1], 283.15 K, x1 = 0.9364	–	–	1270.3 ± 1.6	–
[1], 283.15 K, x1 = 0.9585	–	–	–	0.584 ± 0.016
[1], 298.15 K, x1 = 0.0341	–	–	1242.6 ± 1.6	–
[1], 298.15 K, x1 = 0.0518	–	–	–	2.212 ± 0.052
[1], 298.15 K, x1 = 0.102	–	811.16 ± 0.93	–	–
[1], 298.15 K, x1 = 0.1048	–	–	–	1.914 ± 0.045
[1], 298.15 K, x1 = 0.1054	–	–	1241.6 ± 1.6	–
[1], 298.15 K, x1 = 0.2068	–	816.38 ± 0.92	–	–
[1], 298.15 K, x1 = 0.2085	–	–	1238.8 ± 1.6	–
[1], 298.15 K, x1 = 0.2123	–	–	–	1.446 ± 0.035
[1], 298.15 K, x1 = 0.2968	–	–	1235.7 ± 1.6	–
[1], 298.15 K, x1 = 0.3108	–	821.37 ± 0.91	–	–
[1], 298.15 K, x1 = 0.3159	–	–	–	1.145 ± 0.028
[1], 298.15 K, x1 = 0.3535	–	–	1233.4 ± 1.6	–
[1], 298.15 K, x1 = 0.4152	–	826.08 ± 0.9	–	–
[1], 298.15 K, x1 = 0.4197	–	–	–	0.951 ± 0.024
[1], 298.15 K, x1 = 0.4283	–	–	1230.3 ± 1.6	–
[1], 298.15 K, x1 = 0.4848	–	829.16 ± 0.89	–	–
[1], 298.15 K, x1 = 0.5058	–	–	1226.8 ± 1.6	–
[1], 298.15 K, x1 = 0.5195	–	–	–	0.806 ± 0.021
[1], 298.15 K, x1 = 0.6075	–	–	1222.2 ± 1.6	–
[1], 298.15 K, x1 = 0.6191	–	834.74 ± 0.87	–	–
[1], 298.15 K, x1 = 0.6211	–	–	–	0.701 ± 0.019
[1], 298.15 K, x1 = 0.7077	–	–	1217.6 ± 1.6	–
[1], 298.15 K, x1 = 0.7116	–	–	–	0.626 ± 0.017
[1], 298.15 K, x1 = 0.7245	–	838.88 ± 0.86	–	–
[1], 298.15 K, x1 = 0.8103	–	–	–	0.563 ± 0.016
[1], 298.15 K, x1 = 0.8111	–	–	1212.6 ± 1.6	–
[1], 298.15 K, x1 = 0.8157	–	842.28 ± 0.86	–	–
[1], 298.15 K, x1 = 0.8911	–	845.05 ± 0.85	–	–
[1], 298.15 K, x1 = 0.8947	–	–	1208.3 ± 1.6	–
[1], 298.15 K, x1 = 0.9246	–	–	–	0.507 ± 0.014
[1], 298.15 K, x1 = 0.9337	–	–	1206.1 ± 1.6	–
[1], 298.15 K, x1 = 0.9585	–	–	–	0.502 ± 0.014
[1], 313.15 K, x1 = 0.0518	–	–	–	1.555 ± 0.037
[1], 313.15 K, x1 = 0.0519	–	–	1184.6 ± 1.6	–
[1], 313.15 K, x1 = 0.1038	–	799.46 ± 0.96	–	–
[1], 313.15 K, x1 = 0.1048	–	–	–	1.361 ± 0.033
[1], 313.15 K, x1 = 0.1237	–	–	1181.8 ± 1.6	–
[1], 313.15 K, x1 = 0.2098	–	804.34 ± 0.95	–	–
[1], 313.15 K, x1 = 0.2123	–	–	–	1.085 ± 0.027
[1], 313.15 K, x1 = 0.2168	–	–	1177.7 ± 1.6	–
[1], 313.15 K, x1 = 0.3097	–	–	1172.9 ± 1.6	–
[1], 313.15 K, x1 = 0.3139	–	808.86 ± 0.94	–	–
[1], 313.15 K, x1 = 0.3159	–	–	–	0.896 ± 0.023
[1], 313.15 K, x1 = 0.4133	–	–	1167.2 ± 1.6	–
[1], 313.15 K, x1 = 0.4135	–	813 ± 0.93	–	–
[1], 313.15 K, x1 = 0.4197	–	–	–	0.759 ± 0.02
[1], 313.15 K, x1 = 0.4906	–	816.02 ± 0.92	–	–
[1], 313.15 K, x1 = 0.511	–	–	1161.3 ± 1.6	–
[1], 313.15 K, x1 = 0.5195	–	–	–	0.651 ± 0.017
[1], 313.15 K, x1 = 0.6175	–	820.8 ± 0.91	–	–
[1], 313.15 K, x1 = 0.6211	–	–	–	0.574 ± 0.016
[1], 313.15 K, x1 = 0.6561	–	–	1152.6 ± 1.6	–
[1], 313.15 K, x1 = 0.7116	–	–	–	0.518 ± 0.015
[1], 313.15 K, x1 = 0.7256	–	824.59 ± 0.9	–	–
[1], 313.15 K, x1 = 0.7265	–	–	1148.3 ± 1.6	–
[1], 313.15 K, x1 = 0.8103	–	–	–	0.473 ± 0.014
[1], 313.15 K, x1 = 0.8151	–	–	1142.7 ± 1.6	–
[1], 313.15 K, x1 = 0.8172	–	827.71 ± 0.89	–	–
[1], 313.15 K, x1 = 0.8909	–	830.17 ± 0.89	–	–
[1], 313.15 K, x1 = 0.8995	–	–	1137.1 ± 1.6	–
[1], 313.15 K, x1 = 0.9246	–	–	–	0.432 ± 0.013
[1], 313.15 K, x1 = 0.9476	–	–	1133.5 ± 1.6	–
[1], 313.15 K, x1 = 0.9585	–	–	–	0.425 ± 0.012
[2], 283.15 K, x1 = 0.054	0.0237 ± 0.000717	–	–	–
[2], 283.15 K, x1 = 0.104	0.0492 ± 0.0012	–	–	–
[2], 283.15 K, x1 = 0.206	0.092 ± 0.00191	–	–	–
[2], 283.15 K, x1 = 0.308	0.131 ± 0.00287	–	–	–
[2], 283.15 K, x1 = 0.411	0.154 ± 0.00335	–	–	–
[2], 283.15 K, x1 = 0.51	0.166 ± 0.00359	–	–	–
[2], 283.15 K, x1 = 0.609	0.166 ± 0.00359	–	–	–
[2], 283.15 K, x1 = 0.708	0.151 ± 0.00335	–	–	–
[2], 283.15 K, x1 = 0.806	0.121 ± 0.00263	–	–	–
[2], 283.15 K, x1 = 0.907	0.0696 ± 0.00143	–	–	–
[2], 283.15 K, x1 = 0.953	0.038 ± 0.000956	–	–	–
[2], 298.15 K, x1 = 0.054	0.0263 ± 0.000717	–	–	–
[2], 298.15 K, x1 = 0.104	0.0526 ± 0.0012	–	–	–
[2], 298.15 K, x1 = 0.206	0.102 ± 0.00215	–	–	–
[2], 298.15 K, x1 = 0.308	0.14 ± 0.00311	–	–	–
[2], 298.15 K, x1 = 0.411	0.166 ± 0.00359	–	–	–
[2], 298.15 K, x1 = 0.51	0.179 ± 0.00382	–	–	–
[2], 298.15 K, x1 = 0.609	0.178 ± 0.00382	–	–	–
[2], 298.15 K, x1 = 0.708	0.162 ± 0.00359	–	–	–
[2], 298.15 K, x1 = 0.806	0.129 ± 0.00287	–	–	–
[2], 298.15 K, x1 = 0.907	0.0741 ± 0.00167	–	–	–
[2], 298.15 K, x1 = 0.953	0.0406 ± 0.000956	–	–	–
[2], 313.15 K, x1 = 0.054	0.0277 ± 0.000717	–	–	–
[2], 313.15 K, x1 = 0.104	0.0559 ± 0.0012	–	–	–
[2], 313.15 K, x1 = 0.206	0.109 ± 0.00239	–	–	–
[2], 313.15 K, x1 = 0.308	0.151 ± 0.00335	–	–	–
[2], 313.15 K, x1 = 0.411	0.179 ± 0.00382	–	–	–
[2], 313.15 K, x1 = 0.51	0.193 ± 0.00406	–	–	–
[2], 313.15 K, x1 = 0.609	0.192 ± 0.00406	–	–	–
[2], 313.15 K, x1 = 0.708	0.174 ± 0.00382	–	–	–
[2], 313.15 K, x1 = 0.806	0.138 ± 0.00311	–	–	–
[2], 313.15 K, x1 = 0.907	0.0786 ± 0.00167	–	–	–
[2], 313.15 K, x1 = 0.953	0.0428 ± 0.000956	–	–	–
